Organism: Rattus norvegicus
Test: DrugMatrix - Regimen: Daily Repeat
Assay type: toxicity, organism-based, Sprague-Dawley
Set-up: regimen Daily Repeat, gender Male, age 6-8 weeks
Conditions: in vivo, sc, route subcutaneous, […]; for ABSOLUTE BASOPHIL / ABSOLUTE EOSINOPHIL / ABSOLUTE LYMPHOCYTE / ABSOLUTE MONOCYTE / ABSOLUTE SEGMENTED NEUTROPHIL / BASOPHIL / EOSINOPHIL / ERYTHROCYTE COUNT / HEMATOCRIT / HEMOGLOBIN / LEUKOCYTE COUNT / LYMPHOCYTE / MEAN CORPUSCULAR HEMOGLOBIN / MEAN CORPUSCULAR HEMOGLOBIN CONCENTRATION / MEAN CORPUSCULAR VOLUME / MONOCYTE / NEUTROPHIL / NUCLEATED RED BLOOD CELLS / PLATELET COUNT: tissue Blood; for ALANINE AMINOTRANSFERASE / ALBUMIN / ALKALINE PHOSPHATASE / ASPARTATE AMINOTRANSFERASE / BLOOD UREA NITROGEN / CARBON DIOXIDE / CHLORIDE / CHOLESTEROL / CREATINE PHOSPHOKINASE / CREATININE / GLUCOSE / LACTATE DEHYDROGENASE / LIPASE / PHOSPHORUS / POTASSIUM / SODIUM / TOTAL BILIRUBIN / TOTAL PROTEIN / URIC ACID: tissue Plasma
[1] = 14 mg/kg, 120 h, dose level Low, time 5 day
[2] = 140 mg/kg, 72 h, dose level High, time 3 day
[3] = 140 mg/kg, 120 h, dose level High, time 5 day

CCN(CC)CCOCCC1=CCC2CC1C2(C)C (centres undefined) [MYRTECAINE]
ABSOLUTE BASOPHIL [1]: 0 CELLS/uL
ABSOLUTE EOSINOPHIL [1]: 435.67 CELLS/uL
ABSOLUTE LYMPHOCYTE [1]: 16182.67 CELLS/uL
ABSOLUTE MONOCYTE [1]: 0 CELLS/uL
ABSOLUTE SEGMENTED NEUTROPHIL [1]: 2215 CELLS/uL
BASOPHIL [1]: 0%
EOSINOPHIL [1]: 2.33%
ERYTHROCYTE COUNT [1]: 6.14 x10E6/uL
HEMATOCRIT [1]: 39.17%
HEMOGLOBIN [1]: 15.53 G/DL
LEUKOCYTE COUNT [1]: 18.83 x10E3/uL
LYMPHOCYTE [1]: 86%
MEAN CORPUSCULAR HEMOGLOBIN [1]: 25.33 pg
MEAN CORPUSCULAR HEMOGLOBIN CONCENTRATION [1]: 39.7 G/DL
MEAN CORPUSCULAR VOLUME [1]: 63.8 fL
MONOCYTE [1]: 0%
NEUTROPHIL [1]: 11.67%
NUCLEATED RED BLOOD CELLS [1]: 0 /100WBC
PLATELET COUNT [1]: 1530.33 x10E3/uL
ALANINE AMINOTRANSFERASE [1]: 58 u/L
ALBUMIN [1]: 4.53 G/DL
ALKALINE PHOSPHATASE [1]: 470.67 u/L
ASPARTATE AMINOTRANSFERASE [1]: 83.67 u/L
BLOOD UREA NITROGEN [1]: 17.67 mg/dL
CARBON DIOXIDE [1]: 31.67 mmol/L
CHLORIDE [1]: 104 MEQ/L
CHOLESTEROL [1]: 76.67 mg/dL
CREATINE PHOSPHOKINASE [1]: 162.33 u/L
CREATININE [1]: 0.26 mg/dL
GLUCOSE [1]: 157.67 mg/dL
LACTATE DEHYDROGENASE [1]: 142 u/L
LIPASE [1]: 9.67 u/L
PHOSPHORUS [1]: 14.37 mg/dL
POTASSIUM [1]: 7.28 MEQ/L
SODIUM [1]: 151.27 MEQ/L
TOTAL BILIRUBIN [1]: 0.3 mg/dL
TOTAL PROTEIN [1]: 6.67 G/DL
URIC ACID [1]: 2.23 mg/dL
ABSOLUTE BASOPHIL [2]: 0 CELLS/uL
ABSOLUTE EOSINOPHIL [2]: 42 CELLS/uL
ABSOLUTE LYMPHOCYTE [2]: 11279.33 CELLS/uL
ABSOLUTE MONOCYTE [2]: 191.33 CELLS/uL
ABSOLUTE SEGMENTED NEUTROPHIL [2]: 620.67 CELLS/uL
BASOPHIL [2]: 0%
EOSINOPHIL [2]: 0.33%
ERYTHROCYTE COUNT [2]: 5.34 x10E6/uL
HEMATOCRIT [2]: 33.37%
HEMOGLOBIN [2]: 13.6 G/DL
LEUKOCYTE COUNT [2]: 12.13 x10E3/uL
LYMPHOCYTE [2]: 93%
MEAN CORPUSCULAR HEMOGLOBIN [2]: 25.53 pg
MEAN CORPUSCULAR HEMOGLOBIN CONCENTRATION [2]: 40.77 G/DL
MEAN CORPUSCULAR VOLUME [2]: 62.57 fL
MONOCYTE [2]: 1.67%
NEUTROPHIL [2]: 5%
NUCLEATED RED BLOOD CELLS [2]: 0 /100WBC
PLATELET COUNT [2]: 1370.67 x10E3/uL
ALANINE AMINOTRANSFERASE [2]: 61.67 u/L
ALBUMIN [2]: 3.67 G/DL
ALKALINE PHOSPHATASE [2]: 346 u/L
ASPARTATE AMINOTRANSFERASE [2]: 92 u/L
BLOOD UREA NITROGEN [2]: 13.33 mg/dL
CARBON DIOXIDE [2]: 30.33 mmol/L
CHLORIDE [2]: 100.33 MEQ/L
CHOLESTEROL [2]: 67 mg/dL
CREATINE PHOSPHOKINASE [2]: 447 u/L
CREATININE [2]: 0.17 mg/dL
GLUCOSE [2]: 155.33 mg/dL
LACTATE DEHYDROGENASE [2]: 247.33 u/L
LIPASE [2]: 8 u/L
PHOSPHORUS [2]: 13.73 mg/dL
POTASSIUM [2]: 7.09 MEQ/L
SODIUM [2]: 144.03 MEQ/L
TOTAL BILIRUBIN [2]: 0.2 mg/dL
TOTAL PROTEIN [2]: 5.6 G/DL
URIC ACID [2]: 2.03 mg/dL
ABSOLUTE BASOPHIL [3]: 0 CELLS/uL
ABSOLUTE EOSINOPHIL [3]: 174.67 CELLS/uL
ABSOLUTE LYMPHOCYTE [3]: 14614 CELLS/uL
ABSOLUTE MONOCYTE [3]: 386 CELLS/uL
ABSOLUTE SEGMENTED NEUTROPHIL [3]: 2992 CELLS/uL
BASOPHIL [3]: 0%
EOSINOPHIL [3]: 1%
ERYTHROCYTE COUNT [3]: 6.17 x10E6/uL
HEMATOCRIT [3]: 37.83%
HEMOGLOBIN [3]: 14.87 G/DL
LEUKOCYTE COUNT [3]: 18.17 x10E3/uL
LYMPHOCYTE [3]: 81.33%
MEAN CORPUSCULAR HEMOGLOBIN [3]: 24.07 pg
MEAN CORPUSCULAR HEMOGLOBIN CONCENTRATION [3]: 39.33 G/DL
MEAN CORPUSCULAR VOLUME [3]: 61.3 fL
MONOCYTE [3]: 2.33%
NEUTROPHIL [3]: 15.33%
NUCLEATED RED BLOOD CELLS [3]: 0 /100WBC
PLATELET COUNT [3]: 1631 x10E3/uL
ALANINE AMINOTRANSFERASE [3]: 84.67 u/L
ALBUMIN [3]: 3.97 G/DL
ALKALINE PHOSPHATASE [3]: 328 u/L
ASPARTATE AMINOTRANSFERASE [3]: 111.67 u/L
BLOOD UREA NITROGEN [3]: 16 mg/dL
CARBON DIOXIDE [3]: 26.33 mmol/L
CHLORIDE [3]: 104 MEQ/L
CHOLESTEROL [3]: 74.67 mg/dL
CREATINE PHOSPHOKINASE [3]: 356 u/L
CREATININE [3]: 0.2 mg/dL
GLUCOSE [3]: 164.67 mg/dL
LACTATE DEHYDROGENASE [3]: 370 u/L
LIPASE [3]: 12 u/L
PHOSPHORUS [3]: 13.97 mg/dL
POTASSIUM [3]: 6.94 MEQ/L
SODIUM [3]: 146.77 MEQ/L
TOTAL BILIRUBIN [3]: 0.17 mg/dL
TOTAL PROTEIN [3]: 5.97 G/DL
URIC ACID [3]: 2.6 mg/dL

Source: ChEMBL document CHEMBL3885881, “DrugMatrix”
